Measured values taken from US8062639B2 (priority 2008, dated 2011).

Key:
conscious rats = assay type: in vivo, rat; conditions: for death after hemorrhage plus infusion / restoration of plasma/blood volume after hemorrhage: 20 ml/kg hemorrhage plus infusion of 2 mg/ml (5 ml/hr) (FIG. 3); for change in plasma volume, infusion alone: infusion of 2 mg/ml (5 ml/hr), no hemorrhage, 8 rats/group (FIG. 3)
soluble dog Na/K ATPase = target: T1, soluble dog Na/K ATPase (Canis lupus familiaris, UniProt P50997); experiment: Na/K ATPase activity by pNPP conversion; assay type: biochemical; conditions: rate at 400 nm over 30 min, various concentrations (FIG. 2)
T1 construct: soluble Dog kidney Na/K ATPase; purchased SigmaAldrich; host or cells: dog kidney (the tissue is named only in the general description)

| SMILES | death after hemorrhage plus infusion (conscious rats) | restoration of plasma/blood volume after hemorrhage (conscious rats) | change in plasma volume, infusion alone (conscious rats) | inhibition of Na/K ATPase (conversion of pNPP to pNP) (soluble dog Na/K ATPase) |
| --- | --- | --- | --- | --- |
| C[C@]12CC[C@H](O)C[C@H]1CC[C@@H]1[C@@H]2CC[C@]2(C)[C@@H](c3ccc(=O)oc3)CC[C@]12O [Bufalin] | leads to death | prevents restoration | no effect on plasma volume |  |
| C[C@]12CC[C@H](O)C[C@@]1(O)CC[C@@H]1[C@@H]2CC[C@]2(C)[C@@H](c3ccc(=O)oc3)C[C@H]3O[C@]132 [marinobufogenin] |  | did not have this effect |  | inhibits Na/K ATPase in a dose-response manner |
| C[C@@H]1O[C@@H](O[C@H]2C[C@@H](O)[C@]3(CO)[C@H]4[C@H](O)C[C@]5(C)[C@@H](C6=CC(=O)OC6)CC[C@]5(O)[C@@H]4CC[C@]3(O)C2)[C@H](O)[C@H](O)[C@H]1O [ouabain] | leads to death | prevents restoration | no effect on plasma volume | inhibits Na/K ATPase in a dose-response manner |
